Experimental data as given in patent US20250235496A1, “USE OF BELLIDIFOLIN (BEL) AND/OR BEL-CONTAINING EXTRACT IN PREPARATION OF ANTIDEPRESSANT PRODUCT” (priority 2024, published 2025).
Counter-ions that a name gives are not always drawn.

Tests used:
CORT = assay: Serum CORT level, BEL study; assay type: in vivo; conditions: CORT-induced mice
Method: (§1) Behavioral experiments were conducted once a week, and the serum 5-HT and CORT levels of mice were recorded.

[1] = Mass spectrometry imaging of mouse brain; assay type: in vivo, mice; conditions: mass spectrometry imaging, 21 d
mice = assay: Acute toxicity study of BEL in mice; assay type: in vivo
5-HT = assay: Serum 5-HT level, BEL study; assay type: in vivo; conditions: CORT-induced mice
Method: as §1

[2] = test system: CORT-induced Kunming mouse model; assay: In vivo antidepressant study of BEL: body weight, diet, water intake; set-up: species or system Kunming (KM) mice; conditions: 21 d, CORT-induced mice
Method: After one week of adaptive feeding of experimental mice, 10 mice were randomly selected from 150 mice as a normal group, and the mice in the normal group were not treated in any way. […] The dosing volume was changed once a week according to the weight of the mice, and the mice were subcutaneously administered in the groin of the hind limb between 9:00 and 11:00 am every day. During the modeling, the weight, diet, and water intake of the mice were recorded, and the relevant data were counted once a week until the modeling was completed. During the modeling, the mice were subjected to behavioral analysis. 4 behavioral test designs were designed: FST, TST, SPT, and NSFT. […] There were 5 mice/cage in the normal group and 5 mice/cage in the model group. […] Behavioral experiments were conducted once a week, and the serum 5-HT and CORT levels of mice were recorded. The results were shown in Tables 3 to 5 and FIG. 12A to FIG. 14B.

hippocampal neurons = assay: Golgi staining of brain tissue: neuron dendrite length and dendritic spine density; assay type: in vivo, mice; conditions: 21 d; for Neuron dendrite length, Maximum / Neuron dendrite length, Mean / Neuron dendrite length, Minimum: mouse hippocampus
Excerpt: (§2) Compared with the normal group, the hippocampus structure of the model group mice was abnormal, the cells were wrinkled and then irregularly arranged. After administration, the hippocampus structure returned to normal and the cells were arranged regularly. […] [0172](3) After 21 d of drug administration, brain tissues of mice in each treatment group were collected for Golgi staining.
• (4) After 21 d of drug administration, the dendritic spine density of neurons in the hippocampus of mice was counted. […] The effect intensity was as follows: 10 mg/kg BEL treatment group >20 mg/kg BEL treatment group BEL 40 mg/kg BEL treatment group.

[3] = test system: CORT-induced Kunming mouse model; assay: In vivo antidepressant study of BEL: behavioral tests (FST, TST, SPT, NSFT); set-up: species or system Kunming (KM) mice; conditions: CORT-induced mice
[4] = test system: neurons in the hippocampus of mice; assay: H & E staining and immunofluorescence histochemistry of hippocampus; assay type: in vivo; conditions: 21 d of administration, CORT-induced mice
Excerpt: [0170](2) After 21 d of drug administration, the hippocampus of mice in each treatment group was stained with H & E, and the proliferation of neurons in the hippocampus of mice was detected by immunofluorescence histochemistry.
as §2

Arg1 = Arg1 protein expression in hippocampus (immunoblot); assay type: in vivo, mice; conditions: 10 mg/kg, 21 d, vs model group
Excerpt: (§3) There was no significant difference in the expression of p-CREB protein among the groups.

5-HT2A = 5-HT2A protein expression in hippocampus (immunoblot); assay type: in vivo, mice; conditions: 21 d, vs model group
Excerpt: as §3

HT22 cells = assay: CORT-induced HT22 cell viability, BEL; assay type: cell-based; conditions: Mus musculus, HT-22, 250 μM CORT, 24 h, model = 100.00
CREB = CREB / p-CREB protein expression in hippocampus (immunoblot); assay type: in vivo, mice; conditions: 21 d
Excerpt: as §3

5-HT1A = 5-HT1A protein expression in hippocampus (immunoblot); assay type: in vivo, mice; conditions: 10 and 20 mg/kg, 21 d, vs model group
Excerpt: as §3

[5] = serum, 214 mg/kg gavage, 3 times within 24 h

SMILES: COc1cc(O)c2c(=O)c3c(O)ccc(O)c3oc2c1 [BEL, bellidifolin]
- Serum CORT (CORT; 10 mg/kg/d gavage): 107.08 ± 8.16 ng/mL
- Serum CORT (CORT; 20 mg/kg/d gavage): 111.82 ± 8.27 ng/mL
- Serum CORT (CORT; 40 mg/kg/d gavage): 93.63 ± 11.48 ng/mL
- Distribution in brain [1]: mainly distributed in the hypothalamus, amygdala, hippocampus, and cortex of mice
- Observation during 14-d period (mice; 214 mg/kg gavage 3 times within 24 h, subsequent 14-d observation): did not show any abnormalities
- Toxic side effects (weight, brain, liver, kidneys) (mice; 214 mg/kg gavage, 3 times within 24 h): no toxic side effects on mice
- Weight (mice; 214 mg/kg gavage, 3 times within 24 h, 14 d observation): 39.18 ± 3.94 g
- Observation after treatment (mice; 214 mg/kg gavage, 20 min after the second treatment): slight tremors, which disappeared after 2 min
- ALT (mice; [5]): 26.85 ± 6.22 U/L
- AST (mice; [5]): 48.73 ± 4.15 U/L
- CRE (mice; [5]): 23.20 ± 5.69 µmol/L
- Serum 5-HT (5-HT; 10 mg/kg/d gavage): 134.29 ± 12.34 ng/mL
- Serum 5-HT (5-HT; 20 mg/kg/d gavage): 216.11 ± 3.34 ng/mL
- Serum 5-HT (5-HT; 40 mg/kg/d gavage): 133.42 ± 30.76 ng/mL
- Body weight ([2]; 10 mg/kg/d gavage): 37.19 ± 3.35 g
- Diet ([2]; 10 mg/kg/d gavage): 4.02 ± 0.03 g/day
- Water intake ([2]; 10 mg/kg/d gavage): 4.72 ± 0.42 g/day
- Body weight ([2]; 20 mg/kg/d gavage): 37.33 ± 3.30 g
- Diet ([2]; 20 mg/kg/d gavage): 4.48 ± 0.45 g/day
- Water intake ([2]; 20 mg/kg/d gavage): 4.87 ± 0.99 g/day
- Body weight ([2]; 40 mg/kg/d gavage): 36.31 ± 3.72 g
- Diet ([2]; 40 mg/kg/d gavage): 5.14 ± 1.00 g/day
- Water intake ([2]; 40 mg/kg/d gavage): 6.82 ± 0.45 g/day
- Neuron dendrite length, Maximum (hippocampal neurons; 10 mg/kg/d gavage): 1853.00 μm
- Neuron dendrite length, Mean (hippocampal neurons; 10 mg/kg/d gavage): 75.66 ± 60.55 μm
- Neuron dendrite length, Minimum (hippocampal neurons; 10 mg/kg/d gavage): 5.86 μm
- Neuron dendrite length, Maximum (hippocampal neurons; 20 mg/kg/d gavage): 2297.92 μm
- Neuron dendrite length, Mean (hippocampal neurons; 20 mg/kg/d gavage): 140.64 ± 73.11 μm
- Neuron dendrite length, Minimum (hippocampal neurons; 20 mg/kg/d gavage): 6.32 μm
- Neuron dendrite length, Maximum (hippocampal neurons; 40 mg/kg/d gavage): 194.06 μm
- Neuron dendrite length, Mean (hippocampal neurons; 40 mg/kg/d gavage): 51.73 ± 33.73 μm
- Neuron dendrite length, Minimum (hippocampal neurons; 40 mg/kg/d gavage): 6.04 μm
- Dendritic spine density of hippocampal neurons (hippocampal neurons; 10, 20 and 40 mg/kg, vs model group): could significantly increase the dendritic spine density
- Number and length of neurons in the hippocampus (Golgi staining) (hippocampal neurons; 10 and 20 mg/kg): increased the number of neurons and the length of neurons
- FST immobility time ([3]; 10 mg/kg/d gavage): 145.00 ± 36.40 s
- NSFT start time of eating ([3]; 10 mg/kg/d gavage): 42.75 ± 31.56 s
- SPT sugar water preference ([3]; 10 mg/kg/d gavage): 13.72 ± 0.30 %
- TST immobility time ([3]; 10 mg/kg/d gavage): 27.50 ± 16.05 s
- FST immobility time ([3]; 20 mg/kg/d gavage): 127.14 ± 36.38 s
- NSFT start time of eating ([3]; 20 mg/kg/d gavage): 57.14 ± 35.77 s
- SPT sugar water preference ([3]; 20 mg/kg/d gavage): 12.41 ± 3.32%
- TST immobility time ([3]; 20 mg/kg/d gavage): 47.22 ± 35.19 s
- FST immobility time ([3]; 40 mg/kg/d gavage): 193.33 ± 25.98 s
- NSFT start time of eating ([3]; 40 mg/kg/d gavage): 38.78 ± 22.73 s
- SPT sugar water preference ([3]; 40 mg/kg/d gavage): 8.75 ± 0.18%
- TST immobility time ([3]; 40 mg/kg/d gavage): 98.75 ± 66.35 s
- Proliferation of neurons in the hippocampus (immunohistofluorescence) [4]: could promote the proliferation of neurons in the mouse hippocampus
- Expression of Arg1 protein in hippocampus (Arg1): could significantly reverse the decrease in Arg1 expression
- Expression of 5-HT2A protein in hippocampus (5-HT2A): had no effect on the expression of 5-HT2A
- viability at 0.0625 µM (HT22 cells): 103 ± 5.03%
- viability at 0.125 µM (HT22 cells): 107 ± 2.64%
- viability at 0.25 µM (HT22 cells): 115 ± 3.93%
- viability at 0.5 µM (HT22 cells): 120 ± 3.97%
- viability at 1 µM (HT22 cells): 139 ± 5.34%
- CREB protein level in hippocampus (CREB; 10 mg/kg, reduced level in model group): could significantly reverse this phenomenon
- Phosphorylation level of CREB in hippocampus (CREB; 40 mg/kg, vs model group): significantly decreased
- Expression of 5-HT1A protein in hippocampus (5-HT1A): could significantly promote the expression of 5-HT1A protein

SMILES: CN(C)CCCN1c2ccccc2CCc2ccccc21 [Imi, imipramine hydrochloride, reference compound]
- Serum CORT (CORT; 20 mg/kg/d gavage): 143.19 ± 12.30 ng/mL
- Serum 5-HT (5-HT; 20 mg/kg/d gavage): 130.24 ± 13.65 ng/mL
- Body weight ([2]; 20 mg/kg/d gavage): 34.41 ± 1.80 g
- Diet ([2]; 20 mg/kg/d gavage): 4.38 ± 0.45 g/day
- Water intake ([2]; 20 mg/kg/d gavage): 4.92 ± 0.40 g/day
- Neuron dendrite length, Maximum (hippocampal neurons; 20 mg/kg/d gavage): 172.10 μm
- Neuron dendrite length, Mean (hippocampal neurons; 20 mg/kg/d gavage): 37.66 ± 25.07 μm
- Neuron dendrite length, Minimum (hippocampal neurons; 20 mg/kg/d gavage): 5.95 μm
- FST immobility time ([3]; 20 mg/kg/d gavage): 163.00 ± 38.09 s
- NSFT start time of eating ([3]; 20 mg/kg/d gavage): 65.11 ± 32.90 s
- SPT sugar water preference ([3]; 20 mg/kg/d gavage): 8.32 ± 0.12%
- TST immobility time ([3]; 20 mg/kg/d gavage): 76.43 ± 46.52 s

SMILES: CNCCC(Oc1ccc(C(F)(F)F)cc1)c1ccccc1 (stereo not shown) [Flu, fluoxetine hydrochloride, reference compound]
- Serum CORT (CORT; 20 mg/kg/d gavage): 152.77 ± 11.25 ng/mL
- Body weight ([2]; 20 mg/kg/d gavage): 27.03 ± 1.74 g
- Diet ([2]; 20 mg/kg/d gavage): 3.90 ± 0.39 g/day
- Water intake ([2]; 20 mg/kg/d gavage): 4.00 ± 0.97 g/day
- Neuron dendrite length, Maximum (hippocampal neurons; 20 mg/kg/d gavage): 180.19 μm
- Neuron dendrite length, Mean (hippocampal neurons; 20 mg/kg/d gavage): 54.65 ± 32.76 μm
- Neuron dendrite length, Minimum (hippocampal neurons; 20 mg/kg/d gavage): 6.57 μm
- FST immobility time ([3]; 20 mg/kg/d gavage): 178.50 ± 36.52 s
- NSFT start time of eating ([3]; 20 mg/kg/d gavage): 84.50 ± 32.69 s
- SPT sugar water preference ([3]; 20 mg/kg/d gavage): 13.28 ± 0.56 %
- TST immobility time ([3]; 20 mg/kg/d gavage): 71.43 ± 40.80 s
- viability at 0.0625 µM (HT22 cells): 103 ± 4.06%
- viability at 0.125 µM (HT22 cells): 108 ± 3.95%
- viability at 0.25 µM (HT22 cells): 111 ± 1.64%
- viability at 0.5 µM (HT22 cells): 112 ± 2.77%
- viability at 1 µM (HT22 cells): 123 ± 8.39%
